These results are taken from US6602862B1, “1-Amino-alkylcyclohexanes as trypanocidal agents” (Merz Pharma GmbH & Co., KGAA, priority 2000, dated 2003).

The test system of data set [1] is Bloodstream form T-brucei (strain 427). The data set can be described thus: Growth inhibition of cultured bloodstream form T. brucei, 3 days in presence of test compounds. To be noted: for inhibition at 5 µg/mL: read-out: (Inhibition) (5 μg ml^−1); for (Inhibition) (5 μg ml^−1): preliminary screen at 5 μg ml^−1, 3 days.
Procedure: After determination of cell densities at each drug concentration using a hemocytometer (Weber Scientific International Ltd), drug sensitivity was expressed as a percentage of growth of control cells.
In a preliminary screen, bloodstream form T.brucei were cultured for 3 days in growth medium at pH 7.4 in the presence of aminoalkylcyclohexane derivatives at a concentration of 5 μg ml^−1.
Initially each compound was screened to determine the inhibitory effect at 5 μg ml^−1 (data in brackets). […] Each experiment was performed in triplicate, except where indicated (++). […] Values are presented as ±SD from the mean. […] All other compounds were dissolved in H2O. Control cells were treated accordingly. ND stands for not done.
The subject of data set [2] is bloodstream form of the African trypanosome, Trypanosoma brucei. To be noted: reported recently; cited from earlier work.
For data set [3] the following is noted: patients, advanced stage of the disease; cited from earlier work.
[4] abbreviates: Trypanosoma brucei, 72 h, pH 7.4.
Setting [5] is: concentration inhibiting growth by 50%, 3 days, 37°, pH 7.4, ±SD.
The mark [6] stands for this setting: concentration inhibiting growth by 90%, 3 days, 37°, pH 7.4, ±SD, ++ = six experiments.
The mark [7] stands for this setting: Trypanosoma brucei, 72 h, read-out: IC90.

Read-outs that look alike come from different tables or passages of the source.

The term inhibition denotes how much of the control response was suppressed. Regarding `CC1(C)CCCC(C)(N)C1` (stereo not drawn) [Compound 621, 1-Amino-1,3,3-trimethylcyclohexane], the inhibition at 5 µg/mL in data set [1] (Trypanosoma brucei, 72 h) turned out to be 40%.
Regarding `CC[C@H]1CCC[C@](C)(N)C1` (relative stereo) [Compound 629, 1-Amino-1-methyl-3 (trans) ethylcyclohexane], the inhibition at 5 µg/mL in data set [1] (Trypanosoma brucei, 72 h) was found to be 2%.
For the molecule `CCC1CC(C)(C)CC(C)(N)C1` (stereo not drawn) [Compound 633, 1-Amino-1,3,3-trimethyl-5 (trans) ethylcyclohexane], the inhibition at 5 µg/mL in data set [1] (Trypanosoma brucei, 72 h) came out at 68%.
A word on the IC50: it is the concentration that gives 50% inhibition. Usually IC90 stands for the concentration at which the effect reaches the 90% level. For the molecule `CCCC1(CCC)CC(C)(C)CC(C)(N)C1` (stereo not drawn) [Compound 626, 1,3,3-Trimethyl-5,5-dipropylcyclohexylamine], in data set [1] (setting [4]), the IC50 was 0.25 ± 0.01 µg/mL and the IC90 amounted to 0.29 ± 0.01 µg/mL.
`CC1(C)CC(C)(C)CC(C)(CCN)C1` [Compound 662, 2-(1,3,3,5,5-Pentamethylcyclohexyl-1) ethylamine]: the IC50 in data set [1] (setting [5]) turned out to be 0.24 ± 0.03 µg/mL. The IC90 in data set [1] (setting [6]) was 0.38 ± 0.08++ μg ml−1.
As for `CC(C)(N)CC1CC(C)(C)CC(C)(C)C1` [Compound 645, 2-Methyl-1-(3,3,5,5-tetramethylcyclohexyl)propyl-2-amine], the IC50 in data set [1] (setting [5]) turned out to be 0.22 ± 0.02 µg/mL. Besides, the IC90 in data set [1] (setting [6]) worked out at 0.29 ± 0.01 µg/mL.
For the molecule `CCC[C@H]1CCC[C@](C)(N)C1` (relative stereo) [Compound 627, 1-Amino-1-methyl-3 (trans) propylcyclohexane], the “(Inhibition) (5 μg ml^−1)” value in data set [1] is on record as “(17%)”.
Take `CN(C)C1(C)CC(C)(C)CC(C)(C)C1` [Compound 642, N,N-dimethyl-1-amino-1,3,3,5,5-pentamethylcyclohexane]: the inhibition at 5 µg/mL in data set [1] (Trypanosoma brucei, 72 h) was 21%.
As for `C[C@H]1CCC[C@](C)(N)C1` (relative stereo) [Compound 625, 1-Amino-1,3 (trans)-dimethylcyclohexane], the “(Inhibition) (5 μg ml^−1)” value in data set [1] is “(0%)”.
For the molecule `CCCC1CCCC(C)(N)C1` (stereo not drawn) [Compound 628, 1-Methyl-3-cis-propylcyclohexylamine], the IC50 in data set [1] (setting [5]) came to 1.54 ± 0.02 µg/mL. Further, the IC90 in data set [1] (setting [6]) was 1.95 ± 0.03 µg/mL.
For the molecule `CCCC1(N)CC(C)(C)CC(C)(C)C1` [Compound 601, 1-Amino-1-propyl-3,3,5,5-tetramethylcyclohexane], in data set [1] (setting [4]), the IC50 came out at 1.43 ± 0.08 µg/mL and the IC90 came to 1.87 ± 0.02 µg/mL. Also, the IC90 in data set [1] (setting [7]) was less than 2 µg/mL.
For `CCC[C@H]1CC(C)(C)C[C@](C)(N)C1` (relative stereo) [Compound 635, trans-3-Propyl-1,5,5-trimethylcyclohexylamine], the IC50 in data set [1] (setting [5]) worked out at 2.23 ± 0.33 µg/mL. Moreover, the IC90 in data set [1] (setting [6]) came out at 3.67 ± 0.06 µg/mL.
Regarding `CC1(C)CC(CN)CC(C)(C)C1` [Compound 580, 3,3,5,5-Tetramethylcyclohexylmethylamine], in data set [1] (setting [4]), the IC50 worked out at 1.44 ± 0.09 µg/mL and the IC90 amounted to 1.89 ± 0.02 µg/mL. For the same molecule, in data set [1] (setting [7]), the IC90 was less than 2 µg/mL.
On to `CC1(C)CC(CCN)CC(C)(C)C1` [Compound 644, 2-(3,3,5,5-Tetramethylcyclohexyl)ethylamine], for which, in data set [1] (setting [4]), the IC50 is 0.23 ± 0.02 µg/mL and the IC90 came to 0.31 ± 0.03 µg/mL.
The corresponding values for `CC[C@@H]1CC(C)(C)C[C@](C)(N)C1` (relative stereo) [Compound 632, 1-Amino-1,3,3-trimethyl-5 (cis) ethylcyclohexane] are 2.92 ± 0.19 µg/mL and 3.8 ± 0.07 µg/mL.
On to `CCC[C@H]1CC(C)(C)C[C@@](C)(N)C1` (relative stereo) [Compound 634, cis-3-Propyl-1,5,5-trimethylcyclohexylamine], for which the IC50 in data set [1] (setting [5]) is 0.57 ± 0.13 µg/mL. The IC90 in data set [1] (setting [6]) is on record as 0.77 ± 0.15++ μg ml−1.
In the case of `CCCC1(C)CC(C)(C)CC(C)(N)C1` (stereo not drawn) [Compound 614, 3-Propyl-1,3,5,5-Tetramethylcyclohexylamine], in data set [1] (setting [4]), the IC50 was determined as 0.55 ± 0.11 µg/mL and the IC90 was 0.88 ± 0.09 µg/mL.
As to `CC1(N)CCCCC1` [Compound 641, 1-Amino-1-methylcyclohexane], the inhibition at 5 µg/mL in data set [1] (Trypanosoma brucei, 72 h) came out at 86%.
As for `CC(N)C12CC3CC(CC(C3)C1)C2` (stereo not drawn) [rimantadine], the “sensitivity of bloodstream form T. brucei” value in data set [2] was “sensitive”.
In the case of `CCCC1(C)CC(C)CC(C)(N)C1` (stereo not drawn) [Compound 618, 1-Amino-1,3 (trans),5 (trans)-trimethyl-3(cis)-propylcyclohexane], the IC50 in data set [1] (setting [5]) was found to be 2.19 ± 0.69 µg/mL. In addition, in data set [1] (setting [6]), the IC90 is 3.59 ± 0.17 µg/mL.
`CCC1(C)CC(C)(C)CC(C)(N)C1` (stereo not drawn) [Compound 615, 1-Amino-1,3,5,5-tetramethyl-3-ethylcyclohexane]: in data set [1] (setting [4]), the IC50 was determined as 1.45 ± 0.07 µg/mL and the IC90 was found to be 1.93 ± 0.02 µg/mL.
As to `CCC1(C)CC(C)CC(C)(N)C1` (stereo not drawn) [Compound 622, cis-3-Ethyl-1, trans-3, trans-5-trimethylcyclohexamine], the “(Inhibition) (5 μg ml^−1)” value in data set [1] was “(40%)”.
As to `Nc1nc(N)nc(Nc2ccc([As]3SCC(CO)S3)cc2)n1` (stereo not drawn) [Melarsoprol], the “patient mortality due to arsenic encephalopathy” value in data set [3] is 5 to 10%.
On to `CCCC1(C)CCCC(C)(N)C1` (stereo not drawn) [Compound 617, 1-Amino-1,3-dimethyl-3-propylcyclohexane], for which, in data set [1] (setting [4]), the IC50 was 1.54 ± 0.08 µg/mL and the IC90 is 2.33 ± 0.24 µg/mL.
As to `CCC1(C)CCCC(C)(N)C1` (stereo not drawn) [Compound 620, 1-Amino-1,3-dimethyl-3-ethylcyclohexane], the inhibition at 5 µg/mL in data set [1] (Trypanosoma brucei, 72 h) stood at 25%.
Regarding `C[C@@H]1CC(C)(C)C[C@@](C)(N)C1` (relative stereo) [Compound 607, 1-Amino-1,3,3,5(trans)-tetramethylcyclohexane], the “(Inhibition) (5 μg ml^−1)” value in data set [1] is “(17%)”.
With `CCNC1(C)CC(C)(C)CC(C)(C)C1` [Compound 639, N-Ethyl-1,3,3,5,5-pentamethylcyclohexylamine], in data set [1] (setting [4]), the IC50 stood at 1.37 ± 0.19 µg/mL and the IC90 turned out to be 1.96 ± 0.03 µg/mL. In addition, the concentration for an effect of 90% (IC90) in data set [1] (setting [7]) was less than 2 µg/mL.
